Data set [1] relates to Klebsiella pneumoniae. Kind of data set: Antibacterial activity against carbapenem resistant Klebsiella pneumoniae clinical isolate 19-17 assessed as inhibition of bacterial growth incubated for 18 to 24 hrs by broth microdilution method. Type of data set: functional. The conditions noted are these: time 18-24 hrs.
The test system of data set [2] is Acinetobacter baumannii. Kind of data set: Antibacterial activity against oxacillinase-27 producing Acinetobacter baumannii NCTC 13304 assessed as inhibition of bacterial growth incubated for 18 to 24 hrs by broth microdilution method. It counts as functional. The conditions noted are these: time 18-24 hrs. Background: Dilution methods test growth across graded concentrations, often in twofold steps.

Data set [3] is described as follows: Selectivity index, ratio of IC50 for cytotoxicity against human HK-2 cells to MIC for antibacterial activity against Escherichia coli ATCC BAA-2523. It counts as toxicity, cell-based.
Data set [4] relates to Klebsiella pneumoniae. The data set is described as follows: Antibacterial activity against KPC producing Klebsiella pneumoniae ATCC BAA-1705 assessed as inhibition of bacterial growth incubated for 18 to 24 hrs by broth microdilution method. Type of data set: functional. The conditions noted are these: time 18-24 hrs.
Data set [5] relates to Escherichia coli. The data set is described as follows: Antibacterial activity against Escherichia coli NCTC 13353 assessed as inhibition of bacterial growth incubated for 18 to 24 hrs by broth microdilution method. Type of data set: functional. The conditions noted are these: time 18-24 hrs.
Data set [6] concerns Klebsiella pneumoniae. Kind of data set: Antibacterial activity against carbapenem resistant Klebsiella pneumoniae clinical isolate 19-15 assessed as inhibition of bacterial growth incubated for 18 to 24 hrs by broth microdilution method. It counts as functional. The conditions noted are these: time 18-24 hrs.
In data set [7] the test system is Escherichia coli. The data set is described as follows: Antibacterial activity against Escherichia coli ATCC BAA-2523 assessed as inhibition of bacterial growth incubated for 18 to 24 hrs by broth microdilution method. It counts as functional. The conditions noted are these: time 18-24 hrs.
The subject of data set [8] is Staphylococcus epidermidis. Kind of data set: Antibacterial activity against methicillin resistant Staphylococcus epidermidis clinical isolate 19-6 assessed as inhibition of bacterial growth incubated for 18 to 24 hrs by broth microdilution method. It counts as functional. The conditions noted are these: time 18-24 hrs.
The test system of data set [9] is Pseudomonas aeruginosa. Kind of data set: Antibacterial activity against carbapenem resistant Pseudomonas aeruginosa clinical isolate 19-3 assessed as inhibition of bacterial growth incubated for 18 to 24 hrs by broth microdilution method. Type of data set: functional. The conditions noted are these: time 18-24 hrs.
For data set [10], the system named is Staphylococcus aureus. Kind of data set: Antibacterial activity against methicillin resistant Staphylococcus aureus ATCC 33591 assessed as inhibition of bacterial growth incubated for 18 to 24 hrs by broth microdilution method. It counts as functional. The conditions noted are these: time 18-24 hrs.
Data set [11] has as its system Acinetobacter baumannii. The data set is described as follows: Antibacterial activity against carbapenem resistant Acinetobacter baumannii clinical isolate 19-8 assessed as inhibition of bacterial growth incubated for 18 to 24 hrs by broth microdilution method. Type of data set: functional. The conditions noted are these: time 18-24 hrs.
In data set [12] the test system is Staphylococcus aureus. The data set is described as follows: Antibacterial activity against Staphylococcus aureus ATCC 29213 assessed as inhibition of bacterial growth incubated for 18 to 24 hrs by broth microdilution method. Type of data set: functional. The conditions noted are these: time 18-24 hrs.
Data set [13] concerns Pseudomonas aeruginosa. Kind of data set: Antibacterial activity against carbapenem resistant Pseudomonas aeruginosa clinical isolate 17-1 assessed as inhibition of bacterial growth incubated for 18 to 24 hrs by broth microdilution method. It counts as functional. Conditions: time 18-24 hrs.
The test system of data set [14] is Staphylococcus epidermidis. Kind of data set: Antibacterial activity against methicillin resistant Staphylococcus epidermidis clinical isolate 19-5 assessed as inhibition of bacterial growth incubated for 18 to 24 hrs by broth microdilution method. Type of data set: functional. Conditions: time 18-24 hrs.
A short description of data set [15]: Cytotoxicity against human HK-2 cells assessed as inhibition of cell growth incubated for 72 hrs by CCK-8 assay. It counts as toxicity, cell-based.
Data set [16] relates to Pseudomonas aeruginosa. Kind of data set: Antibacterial activity against Pseudomonas aeruginosa clinical isolate 19-1 assessed as inhibition of bacterial growth incubated for 18 to 24 hrs by broth microdilution method. The conditions noted are these: time 18-24 hrs. Type of data set: functional.
Data set [17] has as its system Pseudomonas aeruginosa. The data set is described as follows: Antibacterial activity against Pseudomonas aeruginosa ATCC 27853 assessed as inhibition of bacterial growth incubated for 18 to 24 hrs by broth microdilution method. Type of data set: functional. Conditions: time 18-24 hrs.
Data set [18] relates to Escherichia coli. The data set is described as follows: Antibacterial activity against KPC producing Escherichia coli ATCC BAA-2340 assessed as inhibition of bacterial growth incubated for 18 to 24 hrs by broth microdilution method. It counts as functional. Conditions: time 18-24 hrs.
Data set [19] concerns Escherichia coli. The data set is described as follows: Antibacterial activity against Escherichia coli clinical isolate 19-2 assessed as inhibition of bacterial growth incubated for 18 to 24 hrs by broth microdilution method. Type of data set: functional. The conditions noted are these: time 18-24 hrs.

Converted amounts (≈) assume the structure as drawn.

As a reminder, the MIC is the smallest concentration in the dilution series that meets the test's criterion for growth inhibition. The term IC50 denotes the concentration that inhibits the measured activity by half. In the case of `CCCCCCCC(=O)N[C@H](CCN)C(=O)N[C@H]1CCNC(=O)[C@H](CC(C)C)NC(=O)[C@H](CCN)NC(=O)[C@H](CCN)NC(=O)[C@H](CC(C)C)NC(=O)[C@@H](CC(C)C)NC(=O)[C@H](CCN)NC1=O`, the MIC in the data set on Klebsiella pneumoniae [1] turned out to be 16 µg/mL (≈ 16.6 µM); with Acinetobacter baumannii [2], 8 µg/mL (≈ 8.28 µM); in the data set with Klebsiella pneumoniae [4] it was 2 µg/mL (≈ 2.07 µM); with Escherichia coli [5] it was 16 µg/mL (≈ 16.6 µM); in the data set with Klebsiella pneumoniae [6] it was 16 µg/mL (≈ 16.6 µM); with Escherichia coli [7], 32 µg/mL (≈ 33.1 µM). For the same compound, the MIC in data set [8] was 64 µg/mL (≈ 66.2 µM); with Pseudomonas aeruginosa [9], 4 µg/mL (≈ 4.14 µM); in the data set with Staphylococcus aureus [10], greater than 64 µg/mL; in the data set with Acinetobacter baumannii [11] it was 16 µg/mL (≈ 16.6 µM); with Staphylococcus aureus [12], greater than 64 µg/mL; in the data set with Pseudomonas aeruginosa [13], 2 µg/mL (≈ 2.07 µM). Moreover, the MIC in [14] is 8 µg/mL (≈ 8.28 µM); in the data set on Pseudomonas aeruginosa [16], 8 µg/mL (≈ 8.28 µM); with Pseudomonas aeruginosa [17], 1 µg/mL (≈ 1.03 µM); with Escherichia coli [18], 2 µg/mL (≈ 2.07 µM); in the data set with Escherichia coli [19], 32 µg/mL (≈ 33.1 µM). Further, in data set [3], the selectivity ratio turned out to be 6.2. Also, in data set [15], the IC50 at 72 h was 198 µg/mL (≈ 205 µM).

For the compound `CCCCCCCCCC(=O)N[C@H](CCN)C(=O)N[C@H]1CCNC(=O)[C@H]([C@@H](C)O)NC(=O)[C@H](CCN)NC(=O)[C@H](CCN)NC(=O)[C@H](CC(C)C)NC(=O)[C@@H](Cc2ccc(Cl)c(Cl)c2)NC(=O)[C@H](CCN)NC1=O`, the MIC came to 4 µg/mL (≈ 3.69 µM) in the data set on Klebsiella pneumoniae [1]; 16 µg/mL (≈ 14.7 µM) with Acinetobacter baumannii [2]; 4 µg/mL (≈ 3.69 µM) in the data set on Klebsiella pneumoniae [4]; 4 µg/mL (≈ 3.69 µM) in the data set on Escherichia coli [5]; 4 µg/mL (≈ 3.69 µM) with Klebsiella pneumoniae [6]; 2 µg/mL (≈ 1.84 µM) with Escherichia coli [7]. The MIC worked out at 4 µg/mL (≈ 3.69 µM) in data set [8]; 4 µg/mL (≈ 3.69 µM) in the data set on Pseudomonas aeruginosa [9]; 32 µg/mL (≈ 29.5 µM) in the data set on Staphylococcus aureus [10]; 16 µg/mL (≈ 14.7 µM) with Acinetobacter baumannii [11]; 16 µg/mL (≈ 14.7 µM) in the data set with Staphylococcus aureus [12]; 16 µg/mL (≈ 14.7 µM) in the data set with Pseudomonas aeruginosa [13]. Further, the MIC in data set [14] came to 4 µg/mL (≈ 3.69 µM); with Pseudomonas aeruginosa [16], 4 µg/mL (≈ 3.69 µM); in the data set on Pseudomonas aeruginosa [17] it was 16 µg/mL (≈ 14.7 µM); with Escherichia coli [18] it was 2 µg/mL (≈ 1.84 µM); with Escherichia coli [19], 2 µg/mL (≈ 1.84 µM). Besides, in [3], the selectivity ratio stood at 14.3. The IC50 at 72 h in data set [15] turned out to be 28.5 µg/mL (≈ 26.3 µM).

As for `CCCCCCCCCC(=O)N[C@H](CCN)C(=O)N[C@H]1CCNC(=O)[C@H]([C@@H](C)O)NC(=O)[C@H](CCN)NC(=O)[C@H](CCN)NC(=O)[C@H](CC(C)C)NC(=O)[C@@H](CC(C)C)NC(=O)[C@H](CCCCN)NC1=O`, the MIC in the data set with Klebsiella pneumoniae [1], with Acinetobacter baumannii [2], with Klebsiella pneumoniae [4], in the data set with Escherichia coli [5], with Klebsiella pneumoniae [6] and in the data set with Escherichia coli [7] was greater than 64 µg/mL in each case. Also, the MIC in [8] is 32 µg/mL (≈ 31.7 µM); with Pseudomonas aeruginosa [9], greater than 64 µg/mL; with Staphylococcus aureus [10] it was greater than 64 µg/mL; with Acinetobacter baumannii [11], greater than 64 µg/mL; in the data set with Staphylococcus aureus [12], greater than 64 µg/mL; with Pseudomonas aeruginosa [13], greater than 64 µg/mL. The MIC was 8 µg/mL (≈ 7.92 µM) in [14]; greater than 64 µg/mL in the data set on Pseudomonas aeruginosa [16]; greater than 64 µg/mL in the data set on Pseudomonas aeruginosa [17]; greater than 64 µg/mL in the data set with Escherichia coli [18]; greater than 64 µg/mL in the data set with Escherichia coli [19]. For the same compound, the selectivity ratio in data set [3] was less than 3.1. In addition, in [15], the IC50 at 72 h was 196 µg/mL (≈ 193 µM).

On to `CCCCCCCCCC(=O)N[C@H](CCN)C(=O)N[C@H]1CCNC(=O)[C@H](CC(=O)O)NC(=O)[C@H](CCN)NC(=O)[C@H](CCN)NC(=O)[C@H](CC(C)C)NC(=O)[C@@H](CC(C)C)NC(=O)[C@H](CCN)NC1=O`, for which the MIC in the data set with Klebsiella pneumoniae [1], with Acinetobacter baumannii [2], in the data set with Klebsiella pneumoniae [4], in the data set on Escherichia coli [5], in the data set with Klebsiella pneumoniae [6] and with Escherichia coli [7] was greater than 64 µg/mL each time. Besides, the MIC (in data set [8]; in the data set on Pseudomonas aeruginosa [9]; in the data set on Staphylococcus aureus [10]; in the data set on Acinetobacter baumannii [11]; in the data set with Staphylococcus aureus [12]; in the data set on Pseudomonas aeruginosa [13]) was greater than 64 µg/mL in each case. The MIC (in [14]; in the data set on Pseudomonas aeruginosa [16]; with Pseudomonas aeruginosa [17]; in the data set on Escherichia coli [18]; in the data set with Escherichia coli [19]) was greater than 64 µg/mL each time. Besides, the selectivity ratio in data set [3] is less than 5.4. Also, the IC50 at 72 h in [15] was 347 µg/mL (≈ 349 µM).

The record behind these values is ChEMBL document CHEMBL5380795, “Design, Synthesis, and Bioactivity Investigation of Cyclic Lipopeptide Antibiotics Containing Eight to Nine Amino Acids” (J Med Chem, 2023).
